Test results published in US6916818B2, “Azaindoles having serotonin receptor affinity” (NPS Allelix Corp., priority 1999, dated 2005).

Molecular target: T1, human 5HT6 receptor (Homo sapiens, UniProt P50406)
T1 construct: expressed in transfected cells
Experiment: Functional assay: serotonin-stimulated adenyl cyclase (cAMP EIA) in HEK 293 cells expressing 5HT6
Format: cell-based
Conditions: test compound 100 nM and 10 μM along with serotonin
Method: The 5HT6 receptor responds to serotonin and other agonists by increasing adenyl cyclase mediated production of cyclic AMP. Particular test compounds were assayed for their effect on adenyl cyclase activity using the procedure described below.
Compounds acting as antagonists at the 5HT6 receptor will antagonize the agonist effect of serotonin and thus, will block the serotonin-induced increase in adenyl cyclase activity.
HEK 293 cells stably expressing the human 5HT6 receptor were plated in 6 well plates in DMEM (Dulbecco's Modified Eagle Medium)/F12 (Nutrient Mixture F12—Ham) media with 10% FCS (fetal calf serum) and G418 (Geneticen Disulfate, 500 ug/ml), and incubated at 37° C. in a CO2 incubator. The cells were allowed to grow to about 70% confluence before use in the assay.
The culture medium of each well was removed, and the wells were washed once with serum free media. Then 2 ml of SFM+IBMX medium (SFM with 0.5 mM IBMX, 3-isobutyl-1-methylxanthine, 0.1% ascorbic acid and 10 mM pargyline) was added to each well and the wells were incubated at 37° C. for 10 min. Following incubation, the SFM+IBMX medium was removed from each well and fresh SFM+IBMX media was added to the wells separately with one of a) serotonin (1 μM final concentration); b) test compound (100 nM and 10 μM, to test for agonist activity); and c) test compound (100 nM and 10 μM) along with serotonin ([…], to test for antagonist activity). Basal adenyl cyclase activity was determined from wells with only SFM+IBMX media added.
The cells were then incubated at 37° C. for 30 minutes in a CO2 incubator. […] The pellets were discarded and the supernatants were stored at 4° C. until assayed for cAMP concentration. cAMP content for each extract was determined in duplicate by EIA (enzyme-immunoassay) using the Amersham Biotrak cAMP EIA kit (Amersham RPN 225). Final results were expressed as % basal response for agonists and % reversal of serotonin response for antagonists.
The total stimulation of adenyl cyclase by serotonin (So) was determined as the difference in concentration of cAMP in the serotonin-treated cells (Cd) and the basal-treated cells (Cf). […]
The net stimulation (S) of basal adenyl cyclase by an agonist test compound was determined as the difference in cAMP concentration in the drug-treated cell (C) and the basal-treated cells (Cf). […]
The net stimulation (Ss) of basal adenyl cyclase by serotonin in the presence of an antagonist test compound was determined as the difference in cAMP concentration in the serontonin-drug-treated cells (Cs) and the basal-treated cells (Cf). […]
The ability of the antagonist test compound to reverse the serotonin stimuation of adenyl cyclase activity (% reversal, % R) was determined by the formula: % R=(1−Ss/So)×100

T1 sequence (P50406 whole entry): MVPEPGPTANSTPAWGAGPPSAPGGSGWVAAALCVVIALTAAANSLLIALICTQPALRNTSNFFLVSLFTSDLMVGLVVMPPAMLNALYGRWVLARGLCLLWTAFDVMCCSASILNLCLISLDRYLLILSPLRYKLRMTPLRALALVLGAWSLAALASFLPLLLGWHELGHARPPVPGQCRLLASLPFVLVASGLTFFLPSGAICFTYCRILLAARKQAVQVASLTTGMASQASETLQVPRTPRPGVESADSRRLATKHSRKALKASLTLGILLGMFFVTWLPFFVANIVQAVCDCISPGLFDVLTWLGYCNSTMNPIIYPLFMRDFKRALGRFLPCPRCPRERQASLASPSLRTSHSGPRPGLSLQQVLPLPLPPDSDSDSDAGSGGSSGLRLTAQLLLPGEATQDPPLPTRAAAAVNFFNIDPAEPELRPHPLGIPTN

Structure (SMILES) | reversal of serotonin stimulation of adenyl cyclase (antagonist activity)
O=S(=O)(c1cccc2ccccc12)n1cc(C2=CCN3CCCC3C2)c2cnccc21 (stereo not shown) [3-(1,2,3,5,8,8a-Hexahydro-7-indolizinyl)-1-(1-naphthalenesulfonyl)-5-azaindole] | able to reverse the serotonin stimulation of adenyl cyclase
O=S(=O)(c1cccc2ccccc12)n1cc(C2=CCN3CCCC3C2)c2cccnc21 (stereo not shown) [3-(1,2,3,5,8,8a-Hexahydro-7-indolizinyl)-1-(1-naphthalenesulfonyl)-7-azaindole] | able to reverse the serotonin stimulation of adenyl cyclase
O=S(=O)(c1ccccc1)n1cc(C2=CCN3CCCC3C2)c2cnccc21 (stereo not shown) [3-(1,2,3,5,8,8a-Hexahydro-7-indolizinyl)-1-benzenesulfonyl-5-azaindole] | able to reverse the serotonin stimulation of adenyl cyclase
O=S(=O)(c1ccccc1)n1cc(C2=CCN3CCCC3C2)c2cccnc21 (stereo not shown) [3-(1,2,3,5,8,8a-Hexahydro-7-indolizinyl)-1-benzenesulfonyl-7-azaindole] | able to reverse the serotonin stimulation of adenyl cyclase
